The values below come from patent US10472336B2, “Modulators of indoleamine 2,3-dioxygenase” (GlaxoSmithKline Intellectual Property (No.2) Limited, priority 2015, dated 2019).

For this assay, the target named is indoleamine 2, 3-dioxygenase (IDO1) (Homo sapiens, UniProt P14902). The assay is described as follows: HeLa IDOi assay (kynurenine detection by mass spectrometry). It is filed as cell-based. Also noted: human epithelial HeLa cells (CCL-2; host or cells: HeLa cells stimulated with human IFN-γ. The following applies: IFN-γ stimulated human epithelial HeLa cells, 2 days. How it is done: Compounds of the present invention were tested via high-throughput cellular assays utilizing detection of kynurenine via mass spectrometry and cytotoxicity as end-points. For the mass spectrometry and cytotoxicity assays, human epithelial HeLa cells (CCL-2; ATCC®, Manassas, Va.) were stimulated with human interferon-γ (IFN-γ) (Sigma-Aldrich Corporation, St. Louis, Mo.) to induce the expression of indoleamine 2, 3-dioxygenase (IDO1). Compounds with IDO1 inhibitory properties decreased the amount of kynurenine produced by the cells via the tryptophan catabolic pathway. Cellular toxicity due to the effect of compound treatment was measured using CellTiter-Glo® reagent (CTG) (Promega Corporation, Madison, Wis.), which is based on luminescent detection of ATP, an indicator of metabolically active cells.
Chain of indoleamine 2, 3-dioxygenase (IDO1) (P14902 whole entry): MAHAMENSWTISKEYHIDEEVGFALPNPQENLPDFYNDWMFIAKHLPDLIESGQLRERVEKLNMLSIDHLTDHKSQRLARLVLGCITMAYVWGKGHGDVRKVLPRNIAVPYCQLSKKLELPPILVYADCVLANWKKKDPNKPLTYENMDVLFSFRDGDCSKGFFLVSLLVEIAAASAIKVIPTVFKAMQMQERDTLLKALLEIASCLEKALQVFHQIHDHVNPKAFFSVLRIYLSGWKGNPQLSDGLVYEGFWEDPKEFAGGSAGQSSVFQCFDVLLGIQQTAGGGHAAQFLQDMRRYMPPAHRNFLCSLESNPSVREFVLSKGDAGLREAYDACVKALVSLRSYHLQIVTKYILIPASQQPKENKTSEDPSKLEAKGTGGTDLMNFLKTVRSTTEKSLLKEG
In preparation for the assays, test compounds were serially diluted 3-fold in DMSO from a typical top concentration of 5 mM and plated at 0.5 μL in 384-well, polystyrene, clear bottom, tissue culture treated plates with lids (Greiner Bio-One, Kremsmünster, Austria) to generate 11-point dose response curves. Low control wells (0% kynurenine or 100% cytotoxicity) contained either 0.5 μL of DMSO in the presence of unstimulated (−IFN-γ) HeLa cells for the mass spectrometry assay or 0.5 μL of DMSO in the absence of cells for the cytotoxicity assay, and high control wells (100% kynurenine or 0% cytotoxicity) contained 0.5 μL of DMSO in the presence of stimulated (+IFN-γ) HeLa cells for both the mass spectrometry and cytotoxicity assays.
Frozen stocks of HeLa cells were washed and recovered in DMEM high glucose medium with HEPES (Thermo Fisher Scientific, Inc., Waltham, Mass.) supplemented with 10% v/v certified fetal bovine serum (FBS) (Thermo Fisher Scientific, Inc., Waltham, Mass.), and 1× penicillin-streptomycin antibiotic solution (Thermo Fisher Scientific, Inc., Waltham, Mass.). The cells were diluted to 100,000 cells/mL in the supplemented DMEM medium. 50 μL of either the cell suspension, for the mass spectrometry assay, or medium alone, for the cytotoxicity assay, were added to the low control wells, on the previously prepared 384-well compound plates, resulting in 5,000 cells/well or 0 cells/well respectively. IFN-γ was added to the remaining cell suspension at a final concentration of 10 nM, and 50 μL of the stimulated cells were added to all remaining wells on the 384-well compound plates. The plates, with lids, were then placed in a 37° C., 5% CO2 humidified incubator for 2 days.
Following incubation, the 384-well plates were removed from the incubator and allowed to equilibrate to room temperature for 30 minutes. For the cytotoxicity assay, CellTiter-Glo® was prepared according to the manufacturer's instructions, and 10 μL were added to each plate well. After a twenty minute incubation at room temperature, luminescence was read on an EnVision® Multilabel Reader (PerkinElmer Inc., Waltham, Mass.). For the mass spectrometry assay, 10 μL of supernatant from each well of the compound-treated plates were added to 40 μL of acetonitrile, containing 10 μM of an internal standard for normalization, in 384-well, polypropylene, V-bottom plates (Greiner Bio-One, Kremsmünster, Austria) to extract the organic analytes. Following centrifugation at 2000 rpm for 10 minutes, 10 μL from each well of the acetonitrile extraction plates were added to 90 μL of sterile, distilled H2O in 384-well, polypropylene, V-bottom plates for analysis of kynurenine and the internal standard on the RapidFire 300 (Agilent Technologies, Santa Clara, Calif.) and 4000 QTRAP MS (SCIEX, Framingham, Mass.). MS data were integrated using Agilent Technologies' RapidFire Integrator software, and data were normalized for analysis as a ratio of kynurenine to the internal standard. […]

Structures are written as SMILES. Structures can show the parent of a compound that is named as a salt.

In general, EC50 refers to the concentration that produces a half-maximal response. A low value points to higher potency in that assay. Consider `CC(C)CN(CC(C)C)c1ccc(C(C)CC(=O)O)cc1Nc1nc(-c2ccccc2)co1` (stereo not shown) [Example 3, 3-(4-(diisobutylamino)-3-((4-phenyloxazol-2-yl)amino)phenyl)butanoic acid], for which the EC50 was 501 nM.
The result for `CC(C)CN(CC(C)C)c1ccc(C(C)CC(=O)O)cc1Nc1cnc(-c2ccccc2)s1` (stereo not shown) [Example 16, 3-(4-(diisobutylamino)-3-((2-phenylthiazol-5-yl)amino)phenyl)butanoic acid] reads 126 nM.
With `CCCCc1cc(C(C)CC(=O)O)cc(Nc2nc(Cl)ns2)c1OCCC` (stereo not shown) [Example 36, 3-(3-butyl-5-((3-chloro-1,2,4-thiadiazol-5-yl)amino)-4-propoxyphenyl)butanoic acid, 2,2,2-trifluoroacetic acid salt] the figure was 158 nM; with `CC(C)CN(CC(C)C)c1ccc(C(C)CC(=O)O)cc1Nc1nc2ccccc2[nH]1` (stereo not shown) [Example 2, 3-(3-((1H-benzo[d]imidazol-2-yl)amino)-4-(diisobutylamino)phenyl)butanoic acid], 3.98 nM.
`CC(C)CN(CC(C)C)c1ccc(C(C)CC(=O)O)cc1Nc1nc(C(F)(F)F)co1` (stereo not shown) [Example 5, 3-(4-(diisobutylamino)-3-((4-(trifluoromethyl)oxazol-2-yl)amino)phenyl)butanoic acid] gave a half-maximal effective concentration (EC50) of 20 nM.
The compound `CCCCc1cc(C(C)CC(=O)O)cc(Nc2nc3ccccc3o2)c1OCCC` (stereo not shown) [Example 35, 3-(3-(benzo[d]oxazol-2-ylamino)-5-butyl-4-propoxyphenyl)butanoic acid] had a concentration for a half-maximal effect (EC50) of 200 nM. This EC50 is about 10-fold higher than that of the compound before.
With `CC(C)CN(c1ccc(C(C)CC(=O)O)cc1Nc1nc(Br)ns1)C1CCCCC1` (stereo not shown) [Example 52, 3-(3-((3-bromo-1,2,4-thiadiazol-5-yl)amino)-4-(cyclohexyl(isobutyl)amino)phenyl)butanoic acid] the figure was 79.4 nM; with `CC(C)CN(CC(C)C)c1ccc(C(C)CC(=O)O)cc1Nc1nc(Br)ns1` (stereo not shown) [Example 32, 3-(3-((3-bromo-1,2,4-thiadiazol-5-yl)amino)-4-(diisobutylamino)phenyl)butanoic acid], 200 nM.
The result for `CC(C)CN(c1ccc(C(C)CC(=O)O)cc1Nc1ccnc(Cl)n1)C1CCCCC1` (stereo not shown) [Example 13, 3-(3-((2-chloropyrimidin-4-yl)amino)-4-(cyclohexyl(isobutyl)amino)phenyl)butanoic acid] reads 12.6 nM; that for `CCOC(=O)c1ncc(Nc2cc(C(C)CC(=O)O)ccc2N(CC(C)C)CC(C)C)s1` (stereo not shown) [Example 17, 3-(4-(diisobutylamino)-3-((2-(ethoxycarbonyl)thiazol-5-yl)amino)phenyl)butanoic acid], 25.1 nM.
Compound `Cc1sc(Nc2cc(C(C)CC(=O)O)ccc2N(CC(C)C)CC(C)C)nc1C(F)(F)F` (stereo not shown) [Example 45, 3-(4-(diisobutylamino)-3-((5-methyl-4-(trifluoromethyl)thiazol-2-yl)amino)phenyl)butanoic acid] showed a concentration for a half-maximal effect (EC50) of 79.4 nM.
With `CC(C)CN(c1ccc(C(C)CC(=O)O)cc1NCc1ccccc1)C1CCCCC1` (stereo not shown) [Example 69, 3-(3-(Benzylamino)-4-(cyclohexyl(isobutyl)amino)phenyl)butanoic Acid] the figure was 158 nM.
Compound `CC(C)CN(c1ccc(C(C)CC(=O)O)cc1Nc1nc(Cl)ns1)C1CCCCC1` (stereo not shown) [Example 7, 3-(3-((3-chloro-1,2,4-thiadiazol-5-yl)amino)-4-(cyclohexyl(isobutyl)amino)phenyl)butanoic acid] showed a 50% effective concentration (EC50) of 5.01 nM. This EC50 is about 32-fold lower than that of the compound before.
With `CC(C)CN(CC(C)C)c1ccc(C(C)CC(=O)O)cc1Nc1nnc(-c2ccccc2)s1` (stereo not shown) [Example 27, 3-(4-(diisobutylamino)-3-((5-phenyl-1,3,4-thiadiazol-2-yl)amino)phenyl)butanoic acid] the figure was 31.6 nM; with `Cc1csc(Nc2cc(C(C)CC(=O)O)ccc2N(CC(C)C)CC(C)C)n1` (stereo not shown) [Example 24, 3-(4-(diisobutylamino)-3-((4-methylthiazol-2-yl)amino)phenyl)butanoic acid], 316 nM.
Take `CC(C)CN(c1ccc(C(C)CC(=O)O)cc1Nc1nc(-c2ccccc2)co1)C1CCCCC1` (stereo not shown) [Example 10, 3-(4-(cyclohexyl(isobutyl)amino)-3-((4-phenyloxazol-2-yl)amino)phenyl)butanoic acid]: the EC50 was 100 nM.
With `Cc1nc(Nc2cc(C(C)CC(=O)O)ccc2N(CC(C)C)CC(C)C)sc1C` (stereo not shown) [Example 43, 3-(4-(diisobutylamino)-3-((4,5-dimethylthiazol-2-yl)amino)phenyl)butanoic acid] the figure was 316 nM; with `CC(C)CN(c1ccc(C(C)CC(=O)O)cc1Nc1nc(C(F)(F)F)ns1)C1CCCCC1` (stereo not shown) [Example 33, 3-(4-(cyclohexyl(isobutyl)amino)-3-((3-(trifluoromethyl)-1,2,4-thiadiazol-5-yl)amino)phenyl)butanoic acid], 2.51 nM; with `CC(C)CN(c1ccc(C(C)CC(=O)O)cc1NC1=N[C@H](c2ccccc2)CO1)C1CCCCC1` (stereo partly drawn) [Example 72, 3-(4-(Cyclohexyl(isobutyl)amino)-3-(((R)-4-phenyl-4,5-dihydrooxazol-2-yl)amino)phenyl)butanoic Acid], 316 nM.
The result for `CC(C)CN(CC(C)C)c1ccc(C(C)CC(=O)O)cc1Nc1nc(C(F)(F)F)cs1` (stereo not shown) [Example 44, 3-(4-(diisobutylamino)-3-((4-(trifluoromethyl)thiazol-2-yl)amino)phenyl)butanoic acid] reads 20 nM.
With `Cc1nsc(Nc2cc(C(C)CC(=O)O)ccc2N(CC(C)C)CC(C)C)n1` (stereo not shown) [Example 31, 3-(4-(diisobutylamino)-3-((3-methyl-1,2,4-thiadiazol-5-yl)amino)phenyl)butanoic acid] the figure was 79.4 nM.
The compound `CC(C)CN(c1ccc(C(C)CC(=O)O)cc1Nc1nc2ccccc2s1)C1CCCCC1` (stereo not shown) [Example 9, 3-(3-(benzo[d]thiazol-2-ylamino)-4-(cyclohexyl(isobutyl)amino)phenyl)butanoic acid] gave a concentration giving a half-maximal response (EC50) of 3.98 nM.
With `Cc1cnc(Nc2cc(C(C)CC(=O)O)ccc2N(CC(C)C)CC(C)C)s1` (stereo not shown) [Example 15, 3-(4-(diisobutylamino)-3-((5-methylthiazol-2-yl)amino)phenyl)butanoic acid] the figure was 158 nM.
With `CC(C)CN(c1ccc(C(C)CC(=O)O)cc1Nc1nc2ccccc2[nH]1)C1CCCCC1` (stereo not shown) [Example 6, 3-(3-((1H-benzo[d]imidazol-2-yl)amino)-4-(cyclohexyl(isobutyl)amino)phenyl)butanoic acid] the figure was 2.51 nM.
Compound `COc1nccc(Nc2cc(C(C)CC(=O)O)ccc2N(CC(C)C)C2CCCCC2)n1` (stereo not shown) [Example 14, 3-(4-(cyclohexyl(isobutyl)amino)-3-((2-methoxypyrimidin-4-yl)amino)phenyl)butanoic acid] gave an EC50 of 39.8 nM.
The result for `CC(C)CN(CC(C)C)c1ccc(C(C)CC(=O)O)cc1Nc1nc(-c2ccccc2)no1` (stereo not shown) [Example 51, 3-(4-(diisobutylamino)-3-((3-phenyl-1,2,4-oxadiazol-5-yl)amino)phenyl)butanoic acid] reads 398 nM; that for `CC(C)CN(CC(C)C)c1ccc(C(C)CC(=O)O)cc1Nc1nc(C(C)C)co1` (stereo not shown) [Example 4, 3-(4-(diisobutylamino)-3-((4-isopropyloxazol-2-yl)amino)phenyl)butanoic acid], 631 nM; that for `Cc1nnc(Nc2cc(C(C)CC(=O)O)ccc2N(CC(C)C)CC(C)C)s1` (stereo not shown) [Example 28, 3-(4-(diisobutylamino)-3-((5-methyl-1,3,4-thiadiazol-2-yl)amino)phenyl)butanoic acid], 31.6 nM.
